By mortality is commonly meant the share of the test organisms that died. What is called LC50 is the concentration that kills 50% of the test population.

≈ marks a conversion by molar mass, not a printed value.

Holding throughout (type): functional
Assay [1] has as its system Plutella xylostella. Put plainly: Insecticidal activity against Plutella xylostella (diamondback moth) in compound treated radish leaf assessed as mortality at 500 ppm.
The test system of assay [2] is Nephotettix cincticeps. Put plainly: Insecticidal activity against Nephotettix cincticeps (green rice leafhopper) in compound treated rice seedlings assessed as mortality at 500 ppm.
Assay [3] relates to Myzus persicae. Put plainly: Insecticidal activity against Myzus persicae (green peach aphid) in compound treated radish leaf assessed as mortality at 500 ppm.
Assay [4] concerns Tetranychus urticae. Put plainly: Acaricidal activity against Tetranychus urticae (two-spotted spider mite) in compound treated kidney bean leaf assessed as larvicidal activity.
Assay [5] relates to Tetranychus urticae. Put plainly: Acaricidal activity against Tetranychus urticae (two-spotted spider mite) in compound treated kidney bean leaf assessed as mortality of egg at 1000 ppm at 24 degC measured after 1 week. To be noted: 168 h.

As to `CCOc1cccc(C2COC(c3c(F)cccc3F)=N2)c1` (configuration not stated), the mortality at 500 ppm in assay [1], in assay [2] and in assay [3] was 0% each time. In addition, the LC50 in assay [4] stood at 1 µg/mL (≈ 3.3 µM).

As to `Fc1cccc(F)c1-c1nc(-c2ccccc2)co1`, the mortality at 1000 ppm in assay [5] came to 0%. Also, the mortality at 500 ppm in assay [1] is 0%; in assay [2] it was 10%; in assay [3] it was 0%. The LC50 in assay [4] is 100 µg/mL (≈ 389 µM).

For the compound `Fc1cccc(F)c1-c1ncc(-c2ccccc2)o1`, the mortality at 1000 ppm in assay [5] turned out to be 0%. For the same compound, the mortality at 500 ppm in assay [1], in assay [2] and in assay [3] was 0% in each case. Further, the 50% lethal concentration (LC50) in assay [4] was 100 µg/mL (≈ 389 µM).

In the case of `Fc1cccc(F)c1C1=NC(c2ccccc2)CS1` (configuration not stated), the mortality at 1000 ppm in assay [5] was found to be 0%. Besides, the mortality at 500 ppm in assay [1], in assay [2] and in assay [3] was 0% throughout. The LC50 in assay [4] is 10 µg/mL (≈ 36.3 µM).

For the compound `Fc1cccc(F)c1C1=NCC(c2ccccc2)S1` (configuration not stated), the mortality at 1000 ppm in assay [5] is 0%. Moreover, the mortality at 500 ppm in assay [1], in assay [2] and in assay [3] was 0% each time. In assay [4], the LC50 is 100 µg/mL (≈ 363 µM).

As for `CCc1ccc(C2COC(c3c(F)cccc3F)=N2)cc1` (configuration not stated), the values for the mortality at 500 ppm in assay [1], in assay [2] and in assay [3] were 0%, 60% and 100%, respectively. The LC50 in assay [4] is 0.001 µg/mL (≈ 0.00348 µM).

As for `COc1ccc(C2COC(c3c(F)cccc3F)=N2)cc1` (configuration not stated), the mortality at 500 ppm in assay [1] came to 0%; in assay [2], 10%; in assay [3], 85%. For the same compound, the median lethal concentration (LC50) in assay [4] is 1 µg/mL (≈ 3.46 µM).

On to `CCOc1ccc(C2COC(c3c(F)cccc3F)=N2)cc1` (configuration not stated), for which the mortality at 500 ppm was determined as 35% in assay [1], 0% in assay [2] and 100% in assay [3]. Further, in assay [4], the LC50 was determined as 0.001 µg/mL (≈ 0.0033 µM).

Turning to `Fc1ccc(C2COC(c3c(F)cccc3F)=N2)cc1` (configuration not stated), the values for the mortality at 500 ppm in assay [1], in assay [2] and in assay [3] were 85%, 10% and 85%, respectively. Moreover, the LC50 in assay [4] was 0.1 µg/mL (≈ 0.361 µM).

For the compound `Fc1cccc(F)c1C1=NC(c2ccc(Cl)cc2)CO1` (configuration not stated), the mortality at 500 ppm was 0% in assay [1], 60% in assay [2] and 0% in assay [3]. Besides, the median lethal concentration (LC50) in assay [4] is 0.001 µg/mL (≈ 0.0034 µM).

Consider `CC(C)c1ccc(C2COC(c3c(F)cccc3F)=N2)cc1` (configuration not stated), for which the figures for the mortality at 500 ppm in assay [1], in assay [2] and in assay [3] were 0%, 60% and 100%, respectively. Further, the LC50 in assay [4] turned out to be 0.001 µg/mL (≈ 0.00332 µM).

For the compound `CCCCc1ccc(C2COC(c3c(F)cccc3F)=N2)cc1` (configuration not stated), the mortality at 500 ppm in assay [1] was 0%; in assay [2], 10%; in assay [3], 100%. The median lethal concentration (LC50) in assay [4] was under 0.001 µg/mL.

Consider `CC(C)Cc1ccc(C2COC(c3c(F)cccc3F)=N2)cc1` (configuration not stated), for which the mortality at 500 ppm in assay [1] worked out at 60%; in assay [2] it was 0%; in assay [3] it was 100%. In assay [4], the 50% lethal concentration (LC50) was under 0.001 µg/mL.

As for `CC(C)(C)c1ccc(C2COC(c3c(F)cccc3F)=N2)cc1` (configuration not stated), the mortality at 500 ppm is 0% in assay [1], 60% in assay [2] and 100% in assay [3]. For the same compound, in assay [4], the LC50 is under 0.001 µg/mL.

As to `CCCCCCc1ccc(C2COC(c3c(F)cccc3F)=N2)cc1` (configuration not stated), the mortality at 500 ppm in assay [1] came to 10%; in assay [2], 0%; in assay [3], 100%. For the same compound, the LC50 in assay [4] was under 0.001 µg/mL.

For the compound `CCCCCCCCc1ccc(C2COC(c3c(F)cccc3F)=N2)cc1` (configuration not stated), the mortality at 500 ppm in assay [1] is 85%; in assay [2] it was 0%; in assay [3], 100%. The LC50 in assay [4] was under 0.001 µg/mL.

On to `CCCCCCCCCCc1ccc(C2COC(c3c(F)cccc3F)=N2)cc1` (configuration not stated), for which the mortality at 500 ppm worked out at 100% in assay [1], 0% in assay [2] and 85% in assay [3]. For the same compound, in assay [4], the median lethal concentration (LC50) was under 0.001 µg/mL.

As for `CCCCCCCCCCCCc1ccc(C2COC(c3c(F)cccc3F)=N2)cc1` (configuration not stated), the values for the mortality at 500 ppm in assay [1], in assay [2] and in assay [3] were 100%, 0% and 85%, respectively. For the same compound, the 50% lethal concentration (LC50) in assay [4] is under 0.001 µg/mL.

As for `CCCCCCCCCCCCCCCc1ccc(C2COC(c3c(F)cccc3F)=N2)cc1` (configuration not stated), the mortality at 500 ppm came out at 85% in assay [1], 0% in assay [2] and 0% in assay [3]. Also, the LC50 in assay [4] amounted to 0.001 µg/mL (≈ 0.00213 µM).

For `Cc1ccccc1C1COC(c2c(F)cccc2F)=N1` (configuration not stated), the mortality at 500 ppm in assay [1] was determined as 0%; in assay [2], 10%; in assay [3] it was 0%. The LC50 in assay [4] stood at 10 µg/mL (≈ 36.6 µM).

As to `CCc1ccccc1C1COC(c2c(F)cccc2F)=N1` (configuration not stated), the mortality at 500 ppm in assay [1] came to 0%; in assay [2] it was 60%; in assay [3], 0%. Moreover, in assay [4], the LC50 came to 1 µg/mL (≈ 3.48 µM).

`COc1ccccc1C1COC(c2c(F)cccc2F)=N1` (configuration not stated): the mortality at 500 ppm in assay [1] is 0%; in assay [2] it was 10%; in assay [3] it was 0%. For the same compound, in assay [4], the LC50 is 10 µg/mL (≈ 34.6 µM).

On to `CCOc1ccccc1C1COC(c2c(F)cccc2F)=N1` (configuration not stated), for which the figures for the mortality at 500 ppm in assay [1], in assay [2] and in assay [3] were 10%, 100% and 0%, respectively. Also, in assay [4], the LC50 was determined as 10 µg/mL (≈ 33 µM).

Turning to `Fc1ccccc1C1COC(c2c(F)cccc2F)=N1` (configuration not stated), the mortality at 500 ppm in assay [1] amounted to 10%; in assay [2] it was 35%; in assay [3], 60%. Moreover, in assay [4], the LC50 was determined as 1 µg/mL (≈ 3.61 µM).

As for `Fc1cccc(F)c1C1=NC(c2ccccc2Cl)CO1` (configuration not stated), the figures for the mortality at 500 ppm in assay [1], in assay [2] and in assay [3] were 35%, 85% and 100%, respectively. Also, the LC50 in assay [4] was 0.1 µg/mL (≈ 0.34 µM).

For the compound `Cc1cccc(C2COC(c3c(F)cccc3F)=N2)c1` (configuration not stated), the mortality at 500 ppm in assay [1], in assay [2] and in assay [3] was 0% throughout. For the same compound, the LC50 in assay [4] came to 10 µg/mL (≈ 36.6 µM).

Take `CCc1cccc(C2COC(c3c(F)cccc3F)=N2)c1` (configuration not stated): the results for the mortality at 500 ppm in assay [1], in assay [2] and in assay [3] were 0%, 60% and 0%, respectively. The LC50 in assay [4] was determined as 10 µg/mL (≈ 34.8 µM).

Turning to `COc1cccc(C2COC(c3c(F)cccc3F)=N2)c1` (configuration not stated), the mortality at 500 ppm in assay [1], in assay [2] and in assay [3] was 0% in each case. The 50% lethal concentration (LC50) in assay [4] turned out to be 1 µg/mL (≈ 3.46 µM).

On to `Fc1cccc(C2COC(c3c(F)cccc3F)=N2)c1` (configuration not stated), for which the mortality at 500 ppm in assay [1] turned out to be 0%; in assay [2], 60%; in assay [3], 0%. In assay [4], the LC50 worked out at 1 µg/mL (≈ 3.61 µM).

Regarding `Fc1cccc(F)c1C1=NC(c2cccc(Cl)c2)CO1` (configuration not stated), the mortality at 500 ppm in assay [1], in assay [2] and in assay [3] was 0% each time. For the same compound, in assay [4], the LC50 is 1 µg/mL (≈ 3.4 µM).

For the compound `Cc1ccc(C2COC(c3c(F)cccc3F)=N2)cc1` (configuration not stated), the values for the mortality at 500 ppm in assay [1], in assay [2] and in assay [3] were 0%, 60% and 100%, respectively. Besides, the LC50 in assay [4] stood at 0.1 µg/mL (≈ 0.366 µM).

As for `CCOc1cc(C(C)(C)C)ccc1C1COC(c2c(F)cccc2F)=N1` (configuration not stated) [ETOXAZOLE], the mortality at 500 ppm in assay [1], in assay [2] and in assay [3] was 100% throughout. For the same compound, the 50% lethal concentration (LC50) in assay [4] amounted to 0.001 µg/mL (≈ 0.00278 µM).

For the origin of these results see ChEMBL document CHEMBL3045663, “Synthesis and Activity of Novel Acaricidal/Insecticidal 2, 4-Diphenyl-1, 3-oxazolines” (J Pestic Sci, 2002).
